From patent publication US8030518B2, “1,4 diamino bicyclic retigabine analogues as potassium channel modulators” (Valeant Pharmaceuticals International, priority 2006, dated 2011)
pEC50: −log10 of the molar value.

Experiments:
[1] = target: T1, KCNQ2/3 heteromultimers (Rattus norvegicus, UniProt O88943+O88944); test: cell-based Rb+ efflux assay in PC-12 cells; settings: Rb+ efflux cellular assay
T1 construct: endogenous in cells; host or cells: PC-12 cells differentiated with NGF-7s; no transfection described
Experimental: Compounds of this invention formula were evaluated for activity toward potassium channels in a cell-based Rb^+ efflux assay. This cellular bioassay is believed to faithfully represent the M channel activities identified with KCNQ2/3 heteromultimers. […] Additionally, antiseizure activity in vivo was evaluated in a mouse maximal electroshock seizure (MES) model, and neurotoxicities were determined from a rotorod neurocognitive motor impairment model and open field observation.
PC-12 cells were grown at 37° C. and 5% CO2 in DMEM/F12 Medium (Dulbecco's Modified Eagle Medium with Nutrient Mix F-12, available from Invitrogen of Carlsbad, Calif.), supplemented with 10% horse serum, 5% fetal bovine serum, 2 mM glutamine, 100 U/ml penicillin, and 100 U/ml streptomycin. They were plated in poly-D-lysine-coated 96-well cell culture microplates at a density of 40,000 cells/well and differentiated with 100 ng/ml NGF-7s for 2-5 days. For the assay, the medium was aspirated, and the cells were washed once with 0.2 ml wash buffer (25 mM HEPES, pH 7.4, 150 mM NaCl, 1 mM MgCl2, 0.8 mM NaH2PO4, 2 mM CaCl2). The cells were then loaded with 0.2 ml Rb^+ loading buffer (wash buffer plus 5.4 mM […], 5 mM glucose) and incubated at 37° C. for 2 h. Attached cells were washed quickly three times with buffer (same as Rb^+ loading buffer, but containing 5.4 mM KCl instead of RbCl) to remove extracellular Rb^+. Immediately following the wash, 0.2 ml of depolarization buffer (wash buffer plus 15 mM KCl solution) with or without compounds was added to the cells to activate efflux of potassium ion channels. After incubation for 10 min at room temperature, the supernatant was carefully removed and collected. Cells were lysed by the addition of 0.2 ml of lysis buffer (depolarization buffer plus 0.1% Triton X-100) and the cell lysates were also collected. If collected samples were not immediately analyzed for Rb^+ contents by atomic absorption spectroscopy (see below), they were stored at 4° C. without any negative effects on subsequent Rb^+ analysis.
The concentrations of Rb^+ in the supernatants (Rb^+Sup) and the cell lysates (Rb^+Lys) were quantified using an ICR8000 flame atomic absorption spectrometer (Aurora Biomed Inc., Vancouver, B.C.) under conditions defined by the manufacturer. Samples 0.05 ml in volume were processed automatically from microtiter plates by dilution with an equal volume of Rb^+ sample analysis buffer and injection into an air-acetylene flame. The amount of Rb^+ in the sample was measured by absorption at 780 nm using a hollow cathode lamp as light source and a PMT detector. A calibration curve covering the range 0-5 mg/L Rb^+ in sample analysis buffer was generated with each set of plates. The percent Rb^+ efflux (F) was defined by F=[Rb^+Sup/(Rb^+Sup+Rb^+Lys)]×100%. […] The efflux (F) and compound concentration relationship was plotted to calculate an EC50 value, a compound's concentration for 50% of maximal Rb^+ efflux. Seizure Model Tests

[2] = tested on: maximal electroshock seizure; test: mouse maximal electroshock seizure (MES) test; assay type: in vivo; parameters: key: A: active; B: inactive; settings: ip dosing of 12.5 mg/kg
Excerpt: The MES testing protocol is based on procedures established at the National Institute of Neurological Disorders and Stroke in conjunction with the Anticonvulsant Screening Program (ASP) at the University of Utah (White, H. S., Woodhead, J. H., Wilcox, K. S., Stables, J. P., Kupferberg, H. J and Wolf, H. H. 2002. “General Principles: Discovery and Preclinical Development of Antiepileptic Drugs,” in Antiepileptic Drugs, 5th Edition, R. H. Levy, ed.; R. H. Mattson, B. S. Meldrum, and E. Perucca. Philadelphia, Lippincott Williams & Wilkins.), The goal of the test is to rapid identify and characterize the in vivo anticonvulsant activity of any compounds that have been shown active in PC-12 cellular based Rb^+ efflux assay.
Adult male CF-1 albino mice (18-25 g, Charles River Laboratories) are […] used for MES screening of compounds. Male Sprague-Dawley albino rats (100-125 g, Charles River Laboratories) are also used to test anticonvulsant compounds. Animals are permitted to rest and recover from transit for at least 48 hr prior to experimentation. Animals are used for AED testing only once. In some instances, the animals can be anesthetized prior to blood collection or whole brain extraction for pharmacokinetic assay. All animals are maintained and handled as outlined in standard animal care guidelines.
In the experiments, testing compounds are prepared as suspensions in 0.5% methyl cellulose (Sigma, Cat # M0512, Viscosity 4000 cP at 20° C.) in water, regardless of solubility. Dry powder compounds are initially ground with a glass rod in a test tube in several drops of methyl cellulose to create a paste and to break down any large chunks. After several minutes of grinding, the volume of the suspension is increased to the final concentration desired. The suspension is then sonicated using a Branson sonicator model 3510 in a water bath at room temperature for 15 minutes. Compound suspensions are further vortexed prior to animal dosing. In some of the cases, DMSO is used to initially solubilize compounds in small volumes and then this solution is added to the 0.5% methyl cellulose solution, in order to create more even and less aggregated compound suspensions. The final concentration of DMSO is 3.75%, an amount with no apparent toxicity or neuroprotective effects in our usual rotarod and MES tests. Methyl cellulose/DMSO compound suspensions are identically prepared for intraperitoneally (i.p.)dosing to mice or orally (p.o.) dosing to rats.
Initially the animals are weighed with an electronic scale and then marked. Data recording sheets are generated for each compound assessment. Mice or rats are dosed with the compound suspension at 0.01 mL/g of body weight. The typical injection volume range is between 180-250 μl for mice. Compounds are dosed by i.p. to mice using a 25 or 22 gauge needle, depending on the viscosity of the suspension. Rats are p.o. dosed using a flexible feeding tube, typically starting at a compound dose of 5 mg/kg.
A Rodent Electroconvulsive Stimulator (Model 200, Hamit-Darvin-Freesh, Snow Canyon Clinic, Ivins, Utah) is used for MES testing. A 60-Hz alternating current (50 mA for mice; 150 mA for rats) is delivered for 0.2 seconds through corneal electrodes to the mice. A drop of 0.5% tetracaine (Sigma, Cat. # T-7508) solution is placed on the eye prior to current delivery. The electrodes are subsequently placed gently onto the eyes of the animal and the electrical shock is initiated by triggering through a foot-pedal activator. The animals are restrained by hand and gently released as the shock is delivered and the seizure commences. Animals are monitored for hind limb tonic extension as the end point for this test. Current delivery is recorded as a measure of overall seizure-induction potential. Electrical current delivery can vary from approximately 30-55 mA (mice) or 90-160 mA (rats) depending on impedance in the animal and quality of the current delivery (i.e. correct placement of the electrodes on the cornea). […]

Structure (SMILES) | pEC50 [1] | Mouse MES test [2]
Cc1c(Br)c2c(c(C)c1NC(=O)CC(C)(C)C)CCCC2Nc1ccc(C(F)(F)F)cc1 (centres unmarked) | < 6.30 | 
Cc1cc2c(c(C)c1NC(=O)CC(C)(C)C)CCCC2Nc1ccc(F)cc1 (single isomer, unassigned; (+)) [Example 4, (+)N-(5-(4-fluorophenylamino)-1,3-dimethyl-5,6,7,8-tetrahydronaphthalen-2-yl)-3,3-dimethylbutanamide] | 7.30 to 8.00 | A
Cc1cc2c(c(C)c1NC(=O)CC(C)(C)C)CCC2Nc1ccc(F)cc1 (single isomer, unassigned; (+)) [Example 13, (+) N-(1-(4-fluorophenylamino)-4,6-dimethyl-2,3-dihydro-1H-inden-5-yl)-3,3-dimethylbutanamide] | 8.00 to 9.00 | A
Cc1cc2c(c(C)c1NC(=O)CC(C)(C)C)CCC2Nc1ccc(C(F)(F)F)cc1 (single isomer, unassigned; (+)) [Example 16, (+) N-(4,6-dimethyl-1-(4-(trifluoromethyl)phenylamino)-2,3-dihydro-1H-inden-5-yl)-3,3-dimethylbutanamide] | 8.00 to 9.00 | A
Cc1cc2c(c(C)c1NC(=O)CC(C)(C)C)CCCC2Nc1ccc(F)cc1 (single isomer, unassigned; (-)) [Example 3, (−)N-(5-(4-fluorophenylamino)-1,3-dimethyl-5,6,7,8-tetrahydronaphthalen-2-yl)-3,3-dimethylbutanamide] | 8.00 to 9.00 | A
Cc1cc2c(c(C)c1NC(=O)CC(C)(C)C)CCCC2Nc1ccc(F)cc1 (centres unmarked) [Example 2, N-(5-(4-fluorophenylamino)-1,3-dimethyl-5,6,7,8-tetrahydronaphthalen-2-yl)-3,3-dimethylbutanamide] | 7.30 to 8.00 | A
Cc1cc2c(c(C)c1NC(=O)CC(C)(C)C)CCCC2Nc1ccc(C(F)(F)F)cc1 (centres unmarked) [Example 5, N-(1,3-dimethyl-5-(4-(trifluoromethyl)phenylamino)-5,6,7,8-tetrahydronaphthalen-2-yl)-3,3-dimethylbutanamide] | 8.00 to 9.00 | A
Cc1cc2c(c(C)c1NC(=O)CC(C)(C)C)CCCC2Nc1ccc(Cl)c(Cl)c1 (centres unmarked) [Example 6, N-(1,3-dimethyl-5-(3,4-dichlorophenylamine)-5,6,7,8-tetrahydronaphthalen-2-yl)-3,3-dimethylbutanamide] | 8.00 to 9.00 | B
Cc1cc2c(c(C)c1NC(=O)CC(C)(C)C)CCCC2Nc1ccc(Cl)cc1 (centres unmarked) [Example 7, N-(1,3-dimethyl-5-(4-chlorophenylamino)-5,6,7,8-tetrahydronaphthalen-2-yl)-3,3-dimethylbutanamide] | 8.00 to 9.00 | A
Cc1cc2c(c(C)c1NC(=O)CC(C)(C)C)CCCC2Nc1ccc(Br)cc1 (centres unmarked) [Example 8, N-(1,3-dimethyl-5-(4-bromophenylamino)-5,6,7,8-tetrahydronaphthalen-2-yl)-3,3-dimethylbutanamide] | 8.00 to 9.00 | 
Cc1cc2c(c(C)c1NC(=O)CC(C)(C)C)CCCC2Nc1cccc(Cl)c1 (centres unmarked) [Example 9, N-(1,3-dimethyl-5-(3-chlorophenylamino)-5,6,7,8-tetrahydronaphthalen-2-yl)-3,3-dimethylbutanamide] | 8.00 to 9.00 | A
Cc1cc2c(c(C)c1NC(=O)CC(C)(C)C)CCCC2Nc1cc(F)cc(F)c1 (centres unmarked) [Example 10, N-(1,3-dimethyl-5-(3,5-difluorophenylamino)-5,6,7,8-tetrahydronaphthalen-2-yl)-3,3-dimethylbutanamide] | 8.00 to 9.00 | A
Cc1cc2c(c(C)c1NC(=O)CC(C)(C)C)CCC2Nc1ccc(Cl)cc1 (centres unmarked) [Example 17, N-(4,6-dimethyl-1-(4-chlorophenylamino)-2,3-dihydro-1H-inden-5-yl)-3,3-dimethylbutanamide] | ≥ 9.00 | A
Cc1cc2c(c(C)c1NC(=O)CC(C)(C)C)CCC2Nc1ccc(Br)cc1 (centres unmarked) [Example 18, N-(4,6-dimethyl-1-(4-bromophenylamino)-2,3-dihydro-1H-inden-5-yl)-3,3-dimethylbutanamide] | ≥ 9.00 | A
Cc1cc2c(c(C)c1NC(=O)CC(C)(C)C)CCC2Nc1cccc(Cl)c1 (centres unmarked) [Example 19, N-(4,6-dimethyl-1-(3-chlorophenylamino)-2,3-dihydro-1H-inden-5-yl)-3,3-dimethylbutanamide] | 8.00 to 9.00 | A
Cc1cc2c(c(C)c1NC(=O)CC(C)(C)C)CCC2Nc1ccc(Cl)c(Cl)c1 (centres unmarked) [Example 20, N-(4,6-dimethyl-1-(3,4-dichlorophenylamine)-2,3-dihydro-1H-inden-5-yl)-3,3-dimethylbutanamide] | ≥ 9.00 | A
Cc1cc2c(c(C)c1NC(=O)CC(C)(C)C)CCC2Nc1ccc(F)c(F)c1 (centres unmarked) [Example 21, N-(4,6-dimethyl-1-(3,4-difluorophenylamino)-2,3-dihydro-1H-inden-5-yl)-3,3-dimethylbutanamide] | 8.00 to 9.00 | A
Cc1cc2c(c(C)c1NC(=O)CC(C)(C)C)CCC2Nc1cc(F)cc(F)c1 (centres unmarked) [Example 22, N-(4,6-dimethyl-1-(3,5-difluorophenylamino)-2,3-dihydro-1H-inden-5-yl)-3,3-dimethylbutanamide] | 8.00 to 9.00 | A
CCOC(=O)Nc1ccc2c(c1)CCC2Nc1ccc(F)cc1 (centres unmarked) [Example 25, Ethyl 1-(4-fluorophenylamino)-2,3-dihydro-1H-inden-5-yl-carbamate] | < 6.30 | 
